Tested on: A2780 (human ovarian cancer)
Assay: Antiproliferative activity against drug-sensitive human A2780 cells

`CC(C)=CCc1c(O)cc(/C=C/c2cc(O)c3c(c2)C[C@@H]2C(C)(C)[C@H](O)CC[C@@]2(C)O3)cc1O` [SCHWEINFURTHIN G] showed an IC50 of 390 nM.

From ChEMBL document CHEMBL1142962, “Antiproliferative prenylated stilbenes and flavonoids from Macaranga alnifolia from the Madagascar rainforest” (J Nat Prod, 2007)
